Results reported in ChEMBL document CHEMBL1149668, “Synthesis and cytotoxicity of desmethoxycallipeltin B: lack of a quinone methide for the cytotoxicity of callipeltin B” (Bioorg Med Chem Lett, 2007).

Test system: HeLa
Test: Cytotoxicity against HeLa cells by MTT […] assay
Format: functional, cell-based
Conditions: Homo sapiens

| SMILES | IC50 [µM] |
| --- | --- |
| CO[C@H](c1ccc(O)cc1)[C@H]1NC(=O)[C@H](CCC(N)=O)N(C)C(=O)[C@H](CC(C)C)NC(=O)[C@@H](CCCNC(=N)N)NC(=O)[C@@H]([C@@H](C)O)NC(=O)[C@H](NC(=O)[C@H]2NC(=O)[C@H](C)[C@@H]2C)[C@@H](C)OC(=O)[C@H](C)N(C)C1=O [CALLIPELTIN B] | 98 |
| CC(C)C[C@@H]1NC(=O)[C@@H](CCCNC(=N)N)NC(=O)[C@@H]([C@@H](C)O)NC(=O)[C@H](NC(=O)[C@H]2NC(=O)[C@H](C)[C@@H]2C)[C@@H](C)OC(=O)[C@H](C)N(C)C(=O)[C@@H](Cc2ccc(O)cc2)NC(=O)[C@H](CCC(N)=O)N(C)C1=O [DESMETHOXYCALLIPELTIN B] | 128 |
